The test system of one test is Plasmodium falciparum. Put plainly: Antiplasmodial activity against ring stage Plasmodium falciparum 3D7A infected in erythrocytes incubated for 24 hrs prior to [3H]hypoxanthine incorporation measured after 24 hrs. The test is classed as functional, organism-based.
Test [1] can be described thus: Inhibition of beta-hematin formation.
A short description of test [2]: Inhibition of beta-hematin formation up to 100 uM.
A further test concerns Plasmodium berghei. Kind of test: Antiplasmodial activity against Plasmodium berghei infected in po dosed mouse assessed as reduction in parasitemia administered qd for 2 days relative to vehicle-treated control. The test is classed as functional.

As usually defined, the IC50 is the concentration at which inhibition is half-maximal. High values mean a need for much substance, low ones inhibition by little substance.

Activity calls are given as the source filed them. The calls are words filed in the database; no cut-off is given here.

In the test on Plasmodium falciparum (Plasmodium falciparum, 3D7A), `CCC(C)(C)N[C@H](C)[C@H](O)c1ccc(C(F)(F)F)cc1` displayed an IC50 of 0.5 µM.
Take `Cc1ccc2ccccc2c1CNCC(O)c1ccc(Cl)c(Cl)c1` (racemic): the IC50 in the test on Plasmodium falciparum (Plasmodium falciparum, 3D7A) is above 5 µM.
Same read-out and setting: the same measure for `CC(C)(C)NCC(O)c1ccc(Cl)c(Cl)c1` (racemic): above 5 µM.
Still for that read-out and setting: the same measure for `CC(NC(C)(C)C)C(O)c1ccc(Cl)c(C(F)(F)F)c1` (racemic): 4.3 µM.
Molecule `O[C@@H](c1cc(C(F)(F)F)nc2c(C(F)(F)F)cccc12)[C@H]1CCCCN1` (relative stereo) [(S,R)-MEFLOQUINE] returned an IC50 in test [1] of 12.2 µM.
With `C[C@H](Nc1ccccc1)[C@@H](O)c1ccc(C(F)(F)F)cc1` (relative stereo), in the test with Plasmodium falciparum (Plasmodium falciparum, 3D7A), the IC50 stood at 5 µM.
As for `CCC(C)(C)N[C@@H](C)[C@@H](O)c1ccc(C(F)(F)F)cc1` (racemic) [listing 1 of 2 here], in test [2], the inhibition entry is “inactive”.
As for `C[C@H](N)[C@@H](O)c1ccc(C(F)(F)F)cc1` (relative stereo), in the test on Plasmodium falciparum (Plasmodium falciparum, 3D7A), the concentration for half-maximal inhibition (IC50) is above 5 µM.
In the case of `CCC(C)(C)N[C@@H](C)[C@@H](O)c1ccc(C(F)(F)F)cc1`, in the test on Plasmodium falciparum, 1.4 µM corresponded to half-maximal inhibition (IC50).
As for `CCC(C)(C)N(C)[C@@H](C)[C@@H](O)c1ccc(C(F)(F)F)cc1` (relative stereo), the half-maximal inhibitory concentration (IC50) in the test on Plasmodium falciparum (Plasmodium falciparum, 3D7A) is above 5 µM.
As for `CCC(C)(C)N[C@@H](C)[C@@H](O)c1ccc(Cl)c(Cl)c1`, the 50% inhibitory concentration (IC50) in the test on Plasmodium falciparum was determined as 0.5 µM.
Still for that read-out and setting: the same measure for `C[C@H](NC(C)(C)C)[C@@H](O)c1ccc(Cl)c(C(F)(F)F)c1`: 0.6 µM.
For the molecule `C[C@H](NC(C)(C)C)[C@@H](O)c1ccc(Cl)c(C(F)(F)F)c1` (racemic) [listing 1 of 2 here], in the test with Plasmodium berghei, the “inhibition (INH)” value is 76%. In the test with Plasmodium falciparum (Plasmodium falciparum, 3D7A), this molecule came in with an IC50 of 0.5 µM.
With `C[C@H](NC(C)(C)C)[C@@H](O)c1ccc(Cl)c(Cl)c1` (racemic), the 50% inhibitory concentration (IC50) in the test on Plasmodium falciparum (Plasmodium falciparum, 3D7A) amounted to 0.9 µM.
Consider `CCC(C)(C)N[C@H](C)[C@H](O)c1ccc(Cl)c(Cl)c1`, for which the IC50 with Plasmodium falciparum (Plasmodium falciparum, 3D7A) was found to be 0.4 µM.
Consider `OC(CNC1CCCCC1)c1ccc(Cl)c(Cl)c1` (racemic), for which 0.72 µM corresponded to half-maximal inhibition with Plasmodium falciparum (Plasmodium falciparum, 3D7A) (IC50).
The same measure, in the same setting: the same measure for `C[C@@H](NC(C)(C)C)[C@H](O)c1ccc(Cl)c(C(F)(F)F)c1`: 0.3 µM; for `OC(CNCc1ccccc1)c1ccc(Cl)c(Cl)c1` (racemic): 0.7 µM.
Consider `C[C@H](NC(C)(C)C)[C@@H](O)c1ccc(Cl)c(C(F)(F)F)c1` (racemic) [listing 2 of 2 here], for which the inhibition result in test [2] is “inactive”.
In the test with Plasmodium falciparum (Plasmodium falciparum, 3D7A), `CC(NC(C)(C)C)C(O)c1ccccc1` (racemic) yielded a concentration for half-maximal inhibition (IC50) above 5 µM.
On to `OC(CNC1CCCCCC1)c1ccc(Cl)c(Cl)c1` (racemic), for which 0.16 µM corresponded to half-maximal inhibition in the test with Plasmodium falciparum (Plasmodium falciparum, 3D7A) (IC50).
The same measure, in the same setting: the same measure for `OC(CNC1CCCCCCC1)c1ccc(Cl)c(Cl)c1` (racemic): 0.07 µM; for `C[C@H](NC(C)(C)C)[C@H](O)c1ccc(Cl)c(Cl)c1` (racemic): above 5 µM.
In the test with Plasmodium falciparum, `CCC(C)(C)N[C@@H](C)[C@@H](O)c1ccc(Cl)c(Cl)c1` (racemic) gave an IC50 of 0.2 µM.
`C[C@H](NC1CCCCC1)[C@@H](O)c1ccc(C(F)(F)F)cc1` (relative stereo) came in with an IC50 in the test with Plasmodium falciparum (Plasmodium falciparum, 3D7A) of 5 µM.
Same read-out and setting: the same measure for `CCC(C)(C)N[C@@H](C)[C@H](O)c1ccc(C(F)(F)F)cc1` (racemic): above 5 µM.
As to `CCC(C)(C)N[C@@H](C)[C@@H](O)c1ccc(C(F)(F)F)cc1` (racemic) [listing 2 of 2 here], the “inhibition (INH)” value with Plasmodium berghei worked out at 64%. 0.4 µM corresponded to half-maximal inhibition in the test on Plasmodium falciparum (IC50).
The molecule `CCC(C)(C)N[C@@H](C)[C@H](O)c1ccc(Cl)c(Cl)c1` (racemic) showed a 50% inhibitory concentration (IC50) in the test on Plasmodium falciparum (Plasmodium falciparum, 3D7A) of 3.9 µM.

For the origin of these results see ChEMBL document CHEMBL3297665, “Case Study of Small Molecules As Antimalarials: 2-Amino-1-phenylethanol (APE) Derivatives” (ACS Med Chem Lett, 2014).
